Here are results for five molecules from ChEMBL document CHEMBL2074182, “Influence of antipsychotic, antiemetic, and Ca(2+) channel blocker drugs on the cellular accumulation of the anticancer drug daunorubicin: P-glycoprotein modulation” (J Pharmacol Exp Ther, 2000).

What all share (format): functional, cell-based
Data set [1] has as its target T1, MDR1 (P-glycoprotein, ABCB1) (Homo sapiens, UniProt P08183). The data set is described as follows: TP_TRANSPORTER: increase in Rhodamine 123 intracellular accumulation (R123: 150 uM, Bepridil: 5 ug/mL) in MDR1-expressing NIH3T3 cells. As to conditions: mouse, probe Rhodamine 123 (150 uM).
For data set [2], the target named is T2, ATP-dependent translocase ABCB1 (Homo sapiens, UniProt P08183). Put plainly: TP_TRANSPORTER: increase in Rhodamine 123 intracellular accumulation (R123: 150 uM, Chlorpromazine: 2.5 ug/mL) in MDR1-expressing NIH3T3 cells. As to conditions: mouse.
T2 sequence (P08183 whole entry): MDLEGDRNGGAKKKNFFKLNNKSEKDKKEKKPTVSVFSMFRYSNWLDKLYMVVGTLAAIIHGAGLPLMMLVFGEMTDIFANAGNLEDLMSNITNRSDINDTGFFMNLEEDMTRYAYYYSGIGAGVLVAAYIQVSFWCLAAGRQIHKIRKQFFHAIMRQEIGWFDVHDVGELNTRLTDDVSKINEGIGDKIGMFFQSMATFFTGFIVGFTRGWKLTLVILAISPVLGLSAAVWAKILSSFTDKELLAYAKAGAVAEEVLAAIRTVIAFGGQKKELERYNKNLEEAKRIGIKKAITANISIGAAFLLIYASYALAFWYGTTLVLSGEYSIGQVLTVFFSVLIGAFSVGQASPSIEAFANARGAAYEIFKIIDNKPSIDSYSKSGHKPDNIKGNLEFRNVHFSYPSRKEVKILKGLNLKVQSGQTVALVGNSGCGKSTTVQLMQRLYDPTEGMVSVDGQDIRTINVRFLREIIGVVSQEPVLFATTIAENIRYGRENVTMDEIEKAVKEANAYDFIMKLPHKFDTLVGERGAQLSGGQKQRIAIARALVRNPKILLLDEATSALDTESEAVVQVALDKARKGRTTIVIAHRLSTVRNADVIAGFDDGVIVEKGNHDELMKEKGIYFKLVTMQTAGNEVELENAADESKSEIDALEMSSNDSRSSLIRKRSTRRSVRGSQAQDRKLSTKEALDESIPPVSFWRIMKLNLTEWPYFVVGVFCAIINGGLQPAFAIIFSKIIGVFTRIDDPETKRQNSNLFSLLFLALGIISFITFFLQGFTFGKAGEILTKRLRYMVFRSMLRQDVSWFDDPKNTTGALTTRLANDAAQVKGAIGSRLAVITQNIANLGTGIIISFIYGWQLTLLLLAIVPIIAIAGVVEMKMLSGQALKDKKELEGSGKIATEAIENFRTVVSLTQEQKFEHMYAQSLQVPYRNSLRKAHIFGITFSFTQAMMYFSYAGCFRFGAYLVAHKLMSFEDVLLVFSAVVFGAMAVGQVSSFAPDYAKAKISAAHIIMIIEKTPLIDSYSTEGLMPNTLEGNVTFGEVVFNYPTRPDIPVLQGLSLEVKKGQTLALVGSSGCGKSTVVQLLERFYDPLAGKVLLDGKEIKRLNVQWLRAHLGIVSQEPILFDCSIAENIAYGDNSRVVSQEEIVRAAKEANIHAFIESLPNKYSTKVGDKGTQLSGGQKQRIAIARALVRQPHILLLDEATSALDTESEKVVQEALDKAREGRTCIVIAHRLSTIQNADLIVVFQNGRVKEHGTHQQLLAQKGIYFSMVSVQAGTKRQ
Data set [3] deals with T1, MDR1 (P-glycoprotein, ABCB1). The data set is described as follows: TP_TRANSPORTER: increase in Rhodamine 123 intracellular accumulation (R123: 150 uM, Nicardipine: 2 ug/mL) in MDR1-expressing NIH3T3 cells. Particulars: mouse, probe Rhodamine 123 (150 uM).
For data set [4], the target named is T2, ATP-dependent translocase ABCB1. The data set is described as follows: TP_TRANSPORTER: increase in Rhodamine 123 intracellular accumulation (R123: 150 uM, Prochloperazine: 5 ug/mL) in MDR1-expressing NIH3T3 cells. Particulars: mouse.
For data set [5] the target is unchanged. The data set is described as follows: TP_TRANSPORTER: increase in Rhodamine 123 intracellular accumulation (R123: 150 uM, Promethazine: 20 ug/mL) in MDR1-expressing NIH3T3 cells. Particulars: mouse.

T1 sequence (P08183 whole entry): as above

Regarding `CC(C)COCC(CN(Cc1ccccc1)c1ccccc1)N1CCCC1` (stereo not given) [BEPRIDIL], the inhibition at 5 ug/mL in data set [1] amounted to 100%.

Take `CCCNC(=O)NS(=O)(=O)c1ccc(Cl)cc1` [CHLORPROPAMIDE]: in data set [2], the Inhibition entry is “inhibitor [at a rough estimate 90 % inhibition]”.

In data set [3], `COC(=O)C1=C(C)NC(C)=C(C(=O)OCCN(C)Cc2ccccc2)C1c1cccc([N+](=O)[O-])c1` (stereo not given) [NICARDIPINE] returned an inhibition at 2 ug/mL of 100%.

Regarding `CN1CCN(CCCN2c3ccccc3Sc3ccc(Cl)cc32)CC1` [PROCHLORPERAZINE], in data set [4], the Inhibition result is “inhibitor [(at a rough estimate) 80 % inhibition]”.

As for `CC(CN1c2ccccc2Sc2ccccc21)N(C)C` (stereo not given) [PROMETHAZINE], in data set [5], the Inhibition entry was “inhibitor [(at a rough estimate) 80 % inhibition]”.

The term inhibition denotes the percentage by which the read-out fell short of the control. A high value points to a strong effect.
